System: 379773-124-R-J2-PDC complex spheroids, viability % test/control
Assay: Anticancer human tumor 379773-124-R-J2-PDC patient-derived endometrial carcinoma cell line growth inhibition [CLK]
Settings: for IC50: curve of first compound; for viability, T/C: stronger effect = lower value
Source text: A high-throughput screen of multi-cell type tumor spheroids was designed to identify active combinations of […] and targeted small molecules. Complex spheroids include a stromal component modeled by human endothelial cells (HUVEC) and fibroblasts modeled by human mesenchymal stem cells (MSCs). The concentration ranges selected for each drug and investigational agent were based upon clinically achievable concentrations if the clinical Cmax of the agent was known.
Compounds. The drugs and investigational agents: cirtuvivint (SM08502; NSC835563), CC-671 (NSC850746), vemurafenib (NSC761431), tapotoclax (NSC804041), sotorasib (NSC818433), adagrasib (NSC831453), MRTX-1133 (NSC836407), BAY2416964 (NSC825713), copanlisib (NSC816437), inavolisib (NSC800729), abemaciclib (NSC768073), osimertinib (NSC779217), entinostat (NSC756642), eltanexor (KPT-8602, NSC794443), venetoclax (NSC766270), ceralasertib (NSC777638), bortezomib (NSC756655), olaparib (NSC753686), talazoparib (NSC767125), alisertib (NSC759677), peposertib (NSC802822), gemcitabine (NSC613327), 5-fluorouracil (NSC19893), SN-38 (NSC673596), oxaliplatin (NSC266046), paclitaxel (NSC125973), and doxorubicin (NSC123127), were obtained from the National Cancer Institute (NCI) Developmental Therapeutics Program Chemical Repository. The FDA-approved anticancer drug set is available from the Developmental Therapeutics Program at https://dtp.cancer.gov/organization/dscb/obtaining/available plates.htm. […] The stock solutions were prepared in dimethyl sulfoxide (DMSO, Sigma-Aldrich, St. Louis, MO, cat. D2650), except for the platinum complexes which were prepared in saline (Quality Biological, Gaithersburg, MD, cat. 114-055-101), at 800-fold the tested concentration and stored at -70 degrees C prior to their use. All drugs and investigational agents were tested over a range starting from a high concentration at or near the clinical Cmax and decreasing in half-log increments. If the clinical Cmax for an agent had not been determined, the highest concentration tested was 10 microM.
Cell Culture. All cells were maintained in an incubator at 37 degrees C and 5% CO2 with 95% humidity. The PDC lines were cultured according to standard operating procedures established by the NCI PDMR. Briefly, all PDCs were thawed and cultured in Matrigel-coated flasks prepared with a working solution of 1X Ham's F-12 nutrient mix, without supplementation (Invitrogen, Waltham, MA, cat. 11765054), 100 U/mL penicillin-streptomycin (Invitrogen, cat. 15140122), and 2.5% Matrigel (Corning Inc., Corning, NY, cat. 354248) for the first three passages. The 947758-054-R-J2-PDC line was cultured in 6B/Colon 1A media, which includes advanced DMEM/F-12 (Thermo Fisher Scientific, cat. 12634028), 10 mM HEPES (Thermo Fisher Scientific, cat. 15630080), 1X GlutaMAX supplement (Thermo Fisher Scientific, cat. 35050061), 0.1 mg/mL primocin (InvivoGen, cat. ant-pm-2), 10% defined fetal bovine serum, heat inactivated (HyClone Laboratories Inc., cat. SH30070.03HI), 1.25 mM N-Acetyl-L-cysteine (Sigma-Aldrich, cat. A9165), 10 mM nicotinamide (Sigma-Aldrich, cat. N0636), 1X B-27 supplement (Thermo Fisher Scientific, cat. 17504044), 1X N-2 supplement (Thermo Fisher Scientific, cat. 17502048), and 10 microM Y-27632 dihydrochloride (Tocris Bioscience, cat. 1254). The 876862-298-R-J1-PDC was cultured in 6E media, which includes all 6B/Colon 1A media components plus 50% L-WRN conditioned media (ATCC, cat. CRL-3276), 50 ng/mL recombinant human EGF recombinant protein (hEGF; Thermo Fisher Scientific, cat. PHG0311), 10 ng/mL recombinant human fibroblast growth factor 10 (hGFG-10; PeproTech, cat. 100-26), 1 ng/mL recombinant human fibroblast growth factor 2 (hFGF-2; PeproTech, cat. 100-18B), and 1 µM prostaglandin E2 (PGE2; Tocris, cat. 2296). The 227483-062-R1-J1-PDC line was cultured in Panc media, containing all 6E components except hFGF-2, with the addition of 500 nM SB-431542 (Selleckchem, cat. S1067) and 10 nM gastrin (Tocris, cat. 3006). […]
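Also: compound exposure lasted seven days before the viability readout.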
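For viability, T/C in this document: 100% = DMSO vehicle control wells.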

IC50 (second compound 0.0316 µM): < 31.6 nM | IC50 (second compound 0.1 µM): < 31.6 nM | IC50 (second compound 0.316 µM): < 31.6 nM | IC50 (second compound 1 µM): < 31.6 nM | IC50 (second compound 3.16 µM): < 31.6 nM | IC50 (second compound 10 µM): < 31.6 nM
Structure (SMILES): Nc1ccn(C2OC(CO)C(O)C2(F)F)c(=O)n1 (configuration not stated) + CNC(=O)c1ccc(Nc2nc(OC3CCCC3)c3c(-c4ccc5nc(C)oc5c4)c[nH]c3n2)c(OC)c1
viability, T/C (second compound 0.0316 µM, first compound 0.0316 µM): 6.55% | viability, T/C (second compound 0.0316 µM, first compound 0.1 µM): 3.76% | viability, T/C (second compound 0.0316 µM, first compound 0.316 µM): 4.74% | viability, T/C (second compound 0.0316 µM, first compound 1 µM): 5.45% | viability, T/C (second compound 0.0316 µM, first compound 3.16 µM): 5.63% | viability, T/C (second compound 0.0316 µM, first compound 10 µM): 3.43% | viability, T/C (second compound 0.1 µM, first compound 0.0316 µM): 7.18% | viability, T/C (second compound 0.1 µM, first compound 0.1 µM): 4.04% | viability, T/C (second compound 0.1 µM, first compound 0.316 µM): 4.89% | viability, T/C (second compound 0.1 µM, first compound 1 µM): 3% | viability, T/C (second compound 0.1 µM, first compound 3.16 µM): 4.22% | viability, T/C (second compound 0.1 µM, first compound 10 µM): 2.03% | viability, T/C (second compound 0.316 µM, first compound 0.0316 µM): 6.96% | viability, T/C (second compound 0.316 µM, first compound 0.1 µM): 5.27% | viability, T/C (second compound 0.316 µM, first compound 0.316 µM): 3.29% | viability, T/C (second compound 0.316 µM, first compound 1 µM): 3.59% | viability, T/C (second compound 0.316 µM, first compound 3.16 µM): 3.28% | viability, T/C (second compound 0.316 µM, first compound 10 µM): 2.14% | viability, T/C (second compound 1 µM, first compound 0.0316 µM): 12.8% | viability, T/C (second compound 1 µM, first compound 0.1 µM): 6.01% | viability, T/C (second compound 1 µM, first compound 0.316 µM): 3.29% | viability, T/C (second compound 1 µM, first compound 1 µM): 2.77% | viability, T/C (second compound 1 µM, first compound 3.16 µM): 3.38% | viability, T/C (second compound 1 µM, first compound 10 µM): 1.2% | viability, T/C (second compound 3.16 µM, first compound 0.0316 µM): 13.6% | viability, T/C (second compound 3.16 µM, first compound 0.1 µM): 6.51% | viability, T/C (second compound 3.16 µM, first compound 0.316 µM): 2.77% | viability, T/C (second compound 3.16 µM, first compound 1 µM): 2.75% | viability, T/C (second compound 3.16 µM, first compound 3.16 µM): 2.62% | viability, T/C (second compound 3.16 µM, first compound 10 µM): 0.99% | viability, T/C (second compound 10 µM, first compound 0.0316 µM): 13.8% | viability, T/C (second compound 10 µM, first compound 0.1 µM): 8.14% | viability, T/C (second compound 10 µM, first compound 0.316 µM): 4.09% | viability, T/C (second compound 10 µM, first compound 1 µM): 2.72% | viability, T/C (second compound 10 µM, first compound 3.16 µM): 3.57% | viability, T/C (second compound 10 µM, first compound 10 µM): 1.76%

From PubChem BioAssay AID2060604 (Molecular Pharmacology Branch, DTP, NCI, 2025)
